Measurements published in PubChem BioAssay (NCI).
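How tested: cells in 96-well plates exposed to compound for 48 hours at five concentrations. TGI marks complete inhibition of growth.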

test system: CAKI-1 renal; assay: growth of human tumour cells (NCI), 48 h

Point of comparison: O=C(N/N=C/c1cc(Br)cc(Br)c1[O-])c1ccccc1O.O=C(N/N=C/c1cc(Br)cc(Br)c1[O-])c1ccccc1O.[Fe+2], TGI 34.5 µM. Against it:
- CCC(C(=O)c1ccc(OC)c(OC)c1)N(C(=O)C(F)(F)F)C(C)c1ccccc1 (stereo unspecified) — higher, > 100 µM
- NC(N)=Nc1ncccc1[N+](=O)[O-] — higher, > 100 µM
- O=[N+]([O-])c1ccc(-c2ccc(-c3csc(Nc4ccccn4)n3)o2)cc1 — higher, > 100 µM

test system: CCRF-CEM leukemia; assay: growth of human tumour cells (NCI), 48 h

Point of comparison: O=C(N/N=C/c1cc(Br)cc(Br)c1[O-])c1ccccc1O.O=C(N/N=C/c1cc(Br)cc(Br)c1[O-])c1ccccc1O.[Fe+2], TGI 24.9 µM. Against it:
- O=C1C(Cl)N(c2ccccc2[N+](=O)[O-])C1c1c[nH]c2ccccc12 (stereo unspecified) — higher, > 100 µM
- CCC(C(=O)c1ccc(OC)c(OC)c1)N(C(=O)C(F)(F)F)C(C)c1ccccc1 (stereo unspecified) — higher, > 100 µM
- NC(N)=Nc1ncccc1[N+](=O)[O-] — higher, > 100 µM

test system: HCT-116 colon; assay: growth of human tumour cells (NCI), 48 h

Point of comparison: O=C(N/N=C/c1cc(Br)cc(Br)c1[O-])c1ccccc1O.O=C(N/N=C/c1cc(Br)cc(Br)c1[O-])c1ccccc1O.[Fe+2], TGI 10.6 µM. Against it:
- O=C1C(Cl)N(c2ccccc2[N+](=O)[O-])C1c1c[nH]c2ccccc12 (stereo unspecified) — higher, > 100 µM
- CCC(C(=O)c1ccc(OC)c(OC)c1)N(C(=O)C(F)(F)F)C(C)c1ccccc1 (stereo unspecified) — higher, > 100 µM
- NC(N)=Nc1ncccc1[N+](=O)[O-] — higher, > 100 µM
- O=[N+]([O-])c1ccc(-c2ccc(-c3csc(Nc4ccccn4)n3)o2)cc1 — higher, > 100 µM

test system: HCT-15 colon; assay: growth of human tumour cells (NCI), 48 h

Point of comparison: O=C(N/N=C/c1cc(Br)cc(Br)c1[O-])c1ccccc1O.O=C(N/N=C/c1cc(Br)cc(Br)c1[O-])c1ccccc1O.[Fe+2], TGI 13.8 µM. Against it:
- CCC(C(=O)c1ccc(OC)c(OC)c1)N(C(=O)C(F)(F)F)C(C)c1ccccc1 (stereo unspecified) — higher, > 100 µM
- NC(N)=Nc1ncccc1[N+](=O)[O-] — higher, > 100 µM
- O=[N+]([O-])c1ccc(-c2ccc(-c3csc(Nc4ccccn4)n3)o2)cc1 — higher, > 100 µM

test system: HL-60(TB) leukemia; assay: growth of human tumour cells (NCI), 48 h

Point of comparison: O=C(N/N=C/c1cc(Br)cc(Br)c1[O-])c1ccccc1O.O=C(N/N=C/c1cc(Br)cc(Br)c1[O-])c1ccccc1O.[Fe+2], TGI 11.2 µM. Against it:
- O=C1C(Cl)N(c2ccccc2[N+](=O)[O-])C1c1c[nH]c2ccccc12 (stereo unspecified) — higher, > 100 µM
- CCC(C(=O)c1ccc(OC)c(OC)c1)N(C(=O)C(F)(F)F)C(C)c1ccccc1 (stereo unspecified) — higher, > 100 µM
- NC(N)=Nc1ncccc1[N+](=O)[O-] — 4-fold higher, 44.4 µM
- O=[N+]([O-])c1ccc(-c2ccc(-c3csc(Nc4ccccn4)n3)o2)cc1 — higher, > 100 µM

test system: HT29 colon; assay: growth of human tumour cells (NCI), 48 h

Point of comparison: O=C(N/N=C/c1cc(Br)cc(Br)c1[O-])c1ccccc1O.O=C(N/N=C/c1cc(Br)cc(Br)c1[O-])c1ccccc1O.[Fe+2], TGI 19.7 µM. Against it:
- O=C1C(Cl)N(c2ccccc2[N+](=O)[O-])C1c1c[nH]c2ccccc12 (stereo unspecified) — higher, > 100 µM
- CCC(C(=O)c1ccc(OC)c(OC)c1)N(C(=O)C(F)(F)F)C(C)c1ccccc1 (stereo unspecified) — higher, > 100 µM
- NC(N)=Nc1ncccc1[N+](=O)[O-] — higher, > 100 µM
- O=[N+]([O-])c1ccc(-c2ccc(-c3csc(Nc4ccccn4)n3)o2)cc1 — higher, > 100 µM

test system: KM12 colon; assay: growth of human tumour cells (NCI), 48 h

Point of comparison: O=C(N/N=C/c1cc(Br)cc(Br)c1[O-])c1ccccc1O.O=C(N/N=C/c1cc(Br)cc(Br)c1[O-])c1ccccc1O.[Fe+2], TGI 23.9 µM. Against it:
- O=C1C(Cl)N(c2ccccc2[N+](=O)[O-])C1c1c[nH]c2ccccc12 (stereo unspecified) — higher, > 100 µM
- NC(N)=Nc1ncccc1[N+](=O)[O-] — higher, > 100 µM
- O=[N+]([O-])c1ccc(-c2ccc(-c3csc(Nc4ccccn4)n3)o2)cc1 — higher, > 100 µM

test system: MOLT-4 leukemia; assay: growth of human tumour cells (NCI), 48 h

Point of comparison: O=C(N/N=C/c1cc(Br)cc(Br)c1[O-])c1ccccc1O.O=C(N/N=C/c1cc(Br)cc(Br)c1[O-])c1ccccc1O.[Fe+2], TGI 19.8 µM. Against it:
- O=C1C(Cl)N(c2ccccc2[N+](=O)[O-])C1c1c[nH]c2ccccc12 (stereo unspecified) — higher, > 100 µM
- CCC(C(=O)c1ccc(OC)c(OC)c1)N(C(=O)C(F)(F)F)C(C)c1ccccc1 (stereo unspecified) — higher, > 100 µM
- NC(N)=Nc1ncccc1[N+](=O)[O-] — higher, > 100 µM
- O=[N+]([O-])c1ccc(-c2ccc(-c3csc(Nc4ccccn4)n3)o2)cc1 — higher, > 100 µM

test system: NCI-H522 lung; assay: growth of human tumour cells (NCI), 48 h

Point of comparison: O=C(N/N=C/c1cc(Br)cc(Br)c1[O-])c1ccccc1O.O=C(N/N=C/c1cc(Br)cc(Br)c1[O-])c1ccccc1O.[Fe+2], TGI 11.4 µM. Against it:
- O=C1C(Cl)N(c2ccccc2[N+](=O)[O-])C1c1c[nH]c2ccccc12 (stereo unspecified) — higher, > 100 µM
- CCC(C(=O)c1ccc(OC)c(OC)c1)N(C(=O)C(F)(F)F)C(C)c1ccccc1 (stereo unspecified) — higher, > 100 µM
- NC(N)=Nc1ncccc1[N+](=O)[O-] — higher, > 100 µM
- O=[N+]([O-])c1ccc(-c2ccc(-c3csc(Nc4ccccn4)n3)o2)cc1 — higher, > 100 µM

test system: OVCAR-5 ovarian; assay: growth of human tumour cells (NCI), 48 h

Point of comparison: O=C(N/N=C/c1cc(Br)cc(Br)c1[O-])c1ccccc1O.O=C(N/N=C/c1cc(Br)cc(Br)c1[O-])c1ccccc1O.[Fe+2], TGI 15.8 µM. Against it:
- O=C1C(Cl)N(c2ccccc2[N+](=O)[O-])C1c1c[nH]c2ccccc12 (stereo unspecified) — 3.5-fold higher, 54.8 µM
- CCC(C(=O)c1ccc(OC)c(OC)c1)N(C(=O)C(F)(F)F)C(C)c1ccccc1 (stereo unspecified) — higher, > 100 µM
- NC(N)=Nc1ncccc1[N+](=O)[O-] — higher, > 100 µM
- O=[N+]([O-])c1ccc(-c2ccc(-c3csc(Nc4ccccn4)n3)o2)cc1 — higher, > 100 µM

test system: RXF 393 renal; assay: growth of human tumour cells (NCI), 48 h

Point of comparison: O=C(N/N=C/c1cc(Br)cc(Br)c1[O-])c1ccccc1O.O=C(N/N=C/c1cc(Br)cc(Br)c1[O-])c1ccccc1O.[Fe+2], TGI 20.6 µM. Against it:
- O=C1C(Cl)N(c2ccccc2[N+](=O)[O-])C1c1c[nH]c2ccccc12 (stereo unspecified) — higher, > 100 µM
- NC(N)=Nc1ncccc1[N+](=O)[O-] — higher, > 100 µM

test system: SF-268 CNS; assay: growth of human tumour cells (NCI), 48 h

Point of comparison: O=C(N/N=C/c1cc(Br)cc(Br)c1[O-])c1ccccc1O.O=C(N/N=C/c1cc(Br)cc(Br)c1[O-])c1ccccc1O.[Fe+2], TGI 38.9 µM. Against it:
- O=C1C(Cl)N(c2ccccc2[N+](=O)[O-])C1c1c[nH]c2ccccc12 (stereo unspecified) — higher, > 100 µM
- CCC(C(=O)c1ccc(OC)c(OC)c1)N(C(=O)C(F)(F)F)C(C)c1ccccc1 (stereo unspecified) — higher, > 100 µM
- NC(N)=Nc1ncccc1[N+](=O)[O-] — higher, > 100 µM
- O=[N+]([O-])c1ccc(-c2ccc(-c3csc(Nc4ccccn4)n3)o2)cc1 — higher, > 100 µM

test system: SK-MEL-2 melanoma; assay: growth of human tumour cells (NCI), 48 h

Point of comparison: O=C(N/N=C/c1cc(Br)cc(Br)c1[O-])c1ccccc1O.O=C(N/N=C/c1cc(Br)cc(Br)c1[O-])c1ccccc1O.[Fe+2], TGI 21.4 µM. Against it:
- O=C1C(Cl)N(c2ccccc2[N+](=O)[O-])C1c1c[nH]c2ccccc12 (stereo unspecified) — higher, > 100 µM
- NC(N)=Nc1ncccc1[N+](=O)[O-] — higher, > 100 µM
- O=[N+]([O-])c1ccc(-c2ccc(-c3csc(Nc4ccccn4)n3)o2)cc1 — higher, > 100 µM

test system: SK-MEL-28 melanoma; assay: growth of human tumour cells (NCI), 48 h

Point of comparison: O=C(N/N=C/c1cc(Br)cc(Br)c1[O-])c1ccccc1O.O=C(N/N=C/c1cc(Br)cc(Br)c1[O-])c1ccccc1O.[Fe+2], TGI 21.6 µM. Against it:
- O=C1C(Cl)N(c2ccccc2[N+](=O)[O-])C1c1c[nH]c2ccccc12 (stereo unspecified) — higher, > 100 µM
- CCC(C(=O)c1ccc(OC)c(OC)c1)N(C(=O)C(F)(F)F)C(C)c1ccccc1 (stereo unspecified) — higher, > 100 µM
- NC(N)=Nc1ncccc1[N+](=O)[O-] — higher, > 100 µM
- O=[N+]([O-])c1ccc(-c2ccc(-c3csc(Nc4ccccn4)n3)o2)cc1 — higher, > 100 µM

test system: SK-MEL-5 melanoma; assay: growth of human tumour cells (NCI), 48 h

Point of comparison: O=C(N/N=C/c1cc(Br)cc(Br)c1[O-])c1ccccc1O.O=C(N/N=C/c1cc(Br)cc(Br)c1[O-])c1ccccc1O.[Fe+2], TGI 23.4 µM. Against it:
- O=C1C(Cl)N(c2ccccc2[N+](=O)[O-])C1c1c[nH]c2ccccc12 (stereo unspecified) — higher, > 100 µM
- CCC(C(=O)c1ccc(OC)c(OC)c1)N(C(=O)C(F)(F)F)C(C)c1ccccc1 (stereo unspecified) — higher, > 100 µM
- NC(N)=Nc1ncccc1[N+](=O)[O-] — higher, > 100 µM

test system: SK-OV-3 ovarian; assay: growth of human tumour cells (NCI), 48 h

Point of comparison: O=C(N/N=C/c1cc(Br)cc(Br)c1[O-])c1ccccc1O.O=C(N/N=C/c1cc(Br)cc(Br)c1[O-])c1ccccc1O.[Fe+2], TGI 13.9 µM. Against it:
- O=C1C(Cl)N(c2ccccc2[N+](=O)[O-])C1c1c[nH]c2ccccc12 (stereo unspecified) — higher, > 100 µM
- CCC(C(=O)c1ccc(OC)c(OC)c1)N(C(=O)C(F)(F)F)C(C)c1ccccc1 (stereo unspecified) — higher, > 100 µM
- NC(N)=Nc1ncccc1[N+](=O)[O-] — higher, > 100 µM
- O=[N+]([O-])c1ccc(-c2ccc(-c3csc(Nc4ccccn4)n3)o2)cc1 — higher, > 100 µM

test system: SNB-19 CNS; assay: growth of human tumour cells (NCI), 48 h

Point of comparison: O=C(N/N=C/c1cc(Br)cc(Br)c1[O-])c1ccccc1O.O=C(N/N=C/c1cc(Br)cc(Br)c1[O-])c1ccccc1O.[Fe+2], TGI 20.4 µM. Against it:
- O=C1C(Cl)N(c2ccccc2[N+](=O)[O-])C1c1c[nH]c2ccccc12 (stereo unspecified) — higher, > 100 µM
- CCC(C(=O)c1ccc(OC)c(OC)c1)N(C(=O)C(F)(F)F)C(C)c1ccccc1 (stereo unspecified) — higher, > 100 µM
- NC(N)=Nc1ncccc1[N+](=O)[O-] — higher, > 100 µM
- O=[N+]([O-])c1ccc(-c2ccc(-c3csc(Nc4ccccn4)n3)o2)cc1 — 3.8-fold higher, 77.4 µM

test system: SW-620 colon; assay: growth of human tumour cells (NCI), 48 h

Point of comparison: O=C(N/N=C/c1cc(Br)cc(Br)c1[O-])c1ccccc1O.O=C(N/N=C/c1cc(Br)cc(Br)c1[O-])c1ccccc1O.[Fe+2], TGI 19.7 µM. Against it:
- O=C1C(Cl)N(c2ccccc2[N+](=O)[O-])C1c1c[nH]c2ccccc12 (stereo unspecified) — higher, > 100 µM
- CCC(C(=O)c1ccc(OC)c(OC)c1)N(C(=O)C(F)(F)F)C(C)c1ccccc1 (stereo unspecified) — higher, > 100 µM
- NC(N)=Nc1ncccc1[N+](=O)[O-] — higher, > 100 µM
- O=[N+]([O-])c1ccc(-c2ccc(-c3csc(Nc4ccccn4)n3)o2)cc1 — higher, > 100 µM

test system: UACC-257 melanoma; assay: growth of human tumour cells (NCI), 48 h

O=C1C(Cl)N(c2ccccc2[N+](=O)[O-])C1c1c[nH]c2ccccc12 (stereo unspecified) and O=[N+]([O-])c1ccc(-c2ccc(-c3csc(Nc4ccccn4)n3)o2)cc1 cannot be ordered by TGI: > 100 µM for the first, > 100 µM for the second.

CCC(C(=O)c1ccc(OC)c(OC)c1)N(C(=O)C(F)(F)F)C(C)c1ccccc1 (stereo unspecified) and NC(N)=Nc1ncccc1[N+](=O)[O-] cannot be ordered by TGI: > 100 µM for the first, > 31.6 µM for the second.

test system: UO-31 renal; assay: growth of human tumour cells (NCI), 48 h

Point of comparison: O=C(N/N=C/c1cc(Br)cc(Br)c1[O-])c1ccccc1O.O=C(N/N=C/c1cc(Br)cc(Br)c1[O-])c1ccccc1O.[Fe+2], TGI 25.3 µM. Against it:
- O=C1C(Cl)N(c2ccccc2[N+](=O)[O-])C1c1c[nH]c2ccccc12 (stereo unspecified) — higher, > 100 µM
- CCC(C(=O)c1ccc(OC)c(OC)c1)N(C(=O)C(F)(F)F)C(C)c1ccccc1 (stereo unspecified) — higher, > 100 µM
- NC(N)=Nc1ncccc1[N+](=O)[O-] — higher, > 100 µM
- O=[N+]([O-])c1ccc(-c2ccc(-c3csc(Nc4ccccn4)n3)o2)cc1 — higher, > 100 µM
